Measured values as given in patent publication US7846959B2, “Raf modulators and methods of use” (Exelixis, Inc., priority 2004, dated 2010).

Columns and labels:
[1] = target: c-Raf (Homo sapiens, UniProt P04049); test: Luciferase-coupled chemiluminescence kinase assay (ATP consumption), c-Raf; assay type: biochemical; settings: read-out: cRaf-1 IC50
Method in brief: (§1)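 Raf enzyme ([…]) pre-incubated with compound 30 minutes at room temperature in 20 mM Tris pH 7.5, 10 mM MgCl2, 0.03% TX-100, 1 mM DTT, then reacted with ATP for 3 hrs at ambient temperature. Remaining ATP quantified by luciferase-luciferin chemiluminescence, consumption held at 25-60%; IC50 reported.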

[2] = target: B-Raf (Homo sapiens, UniProt P15056); test: Luciferase-coupled chemiluminescence kinase assay (ATP consumption), B-Raf; assay type: biochemical; settings: read-out: bRaf IC50
Method in brief: as §1

Sequence of c-Raf (P04049 whole entry): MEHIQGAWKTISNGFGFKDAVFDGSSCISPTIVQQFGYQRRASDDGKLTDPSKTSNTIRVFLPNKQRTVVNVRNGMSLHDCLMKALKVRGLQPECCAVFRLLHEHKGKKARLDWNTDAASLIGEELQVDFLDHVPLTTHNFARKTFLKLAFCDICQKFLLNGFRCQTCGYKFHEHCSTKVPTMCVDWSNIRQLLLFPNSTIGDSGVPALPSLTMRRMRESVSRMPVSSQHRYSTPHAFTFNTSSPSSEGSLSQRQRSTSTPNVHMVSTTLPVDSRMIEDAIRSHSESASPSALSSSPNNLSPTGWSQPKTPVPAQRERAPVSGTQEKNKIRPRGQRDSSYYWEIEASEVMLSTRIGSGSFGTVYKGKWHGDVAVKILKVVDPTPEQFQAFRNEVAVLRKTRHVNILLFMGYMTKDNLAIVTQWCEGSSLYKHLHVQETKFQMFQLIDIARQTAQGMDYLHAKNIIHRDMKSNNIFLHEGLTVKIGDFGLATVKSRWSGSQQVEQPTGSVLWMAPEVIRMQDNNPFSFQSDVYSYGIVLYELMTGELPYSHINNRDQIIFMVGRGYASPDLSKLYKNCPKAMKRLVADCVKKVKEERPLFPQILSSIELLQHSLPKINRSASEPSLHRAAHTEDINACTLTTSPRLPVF
Sequence of B-Raf (P15056 whole entry): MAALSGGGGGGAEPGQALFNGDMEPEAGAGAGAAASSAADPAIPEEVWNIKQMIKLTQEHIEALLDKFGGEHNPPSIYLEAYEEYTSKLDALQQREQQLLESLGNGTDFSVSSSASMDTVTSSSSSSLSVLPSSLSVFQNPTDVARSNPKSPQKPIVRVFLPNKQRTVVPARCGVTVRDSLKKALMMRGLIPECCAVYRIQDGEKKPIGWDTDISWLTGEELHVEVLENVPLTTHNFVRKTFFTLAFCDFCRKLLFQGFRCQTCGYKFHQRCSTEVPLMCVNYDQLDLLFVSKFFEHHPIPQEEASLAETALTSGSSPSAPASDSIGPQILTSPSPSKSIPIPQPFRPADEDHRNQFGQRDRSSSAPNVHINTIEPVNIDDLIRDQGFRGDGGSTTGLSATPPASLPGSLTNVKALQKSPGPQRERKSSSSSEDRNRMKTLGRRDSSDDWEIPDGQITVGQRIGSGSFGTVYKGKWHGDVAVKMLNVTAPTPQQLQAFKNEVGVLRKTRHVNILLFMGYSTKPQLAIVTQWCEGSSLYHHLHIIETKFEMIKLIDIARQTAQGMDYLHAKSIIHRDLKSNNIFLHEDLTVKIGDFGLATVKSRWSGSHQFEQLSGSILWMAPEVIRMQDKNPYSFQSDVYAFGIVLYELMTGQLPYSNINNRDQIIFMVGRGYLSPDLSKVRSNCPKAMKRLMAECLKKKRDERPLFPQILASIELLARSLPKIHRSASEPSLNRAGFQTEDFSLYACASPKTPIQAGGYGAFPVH

SMILES	IC50 [1] [µM]	IC50 [2] [µM]
O=C1COc2ccc(C3(O)c4ccccc4C(=O)N3Cc3cccc(OC(F)(F)F)c3)cc2N1 (stereo not drawn) [Entry 56, 6-[1-hydroxy-3-oxo-2-({3-[(trifluoromethyl)oxy]phenyl}methyl)-2,3-dihydro-1H-isoindol-1-yl]-2H-1,4-benzoxazin-3(4H)-one]	≥ 10	≥ 10
O=C1COc2ccc(C3(O)c4ccccc4C(=O)N3c3cccc(OC(F)(F)F)c3)cc2N1 (stereo not drawn) [Entry 60, 6-(1-hydroxy-3-oxo-2-{3-[(trifluoromethyl)oxy]phenyl}-2,3-dihydro-1H-isoindol-1-yl)-2H-1,4-benzoxazin-3(4H)-one]	≥ 10	≥ 10
COC(=O)Nc1nc2cc(C3(O)c4ccccc4C(=O)N3C(C)c3cc(Cl)ccc3C)ccc2[nH]1 (stereo not drawn) [Entry 198, methyl (5-{2-[1-(5-chloro-2-methylphenyl)ethyl]-1-hydroxy-3-oxo-2,3-dihydro-1H-isoindol-1-yl}-1H-benzimidazol-2-yl)carbamate]	1 to 10	1 to 10
COC(=O)Nc1nc2cc(C3(O)c4ccccc4C(=O)N3C(C)c3cc(C)cs3)ccc2[nH]1 (stereo not drawn) [Entry 209, methyl (5-{1-hydroxy-2-[1-(4-methyl-2-thienyl)ethyl]-3-oxo-2,3-dihydro-1H-isoindol-1-yl}-1H-benzimidazol-2-yl)carbamate]	< 0.1	< 0.1
O=C1COc2ccc(C3(O)c4ccccc4C(=O)N3c3cccc(OCc4ccccc4)c3)cc2N1 (stereo not drawn) [Entry 80, 6-(1-hydroxy-3-oxo-2-{3-[(phenylmethyl)oxy]phenyl}-2,3-dihydro-1H-isoindol-1-yl)-2H-1,4-benzoxazin-3(4H)-one]	≥ 10	≥ 10
O=C(Nc1nc2cc(C3(O)c4ccccc4C(=O)N3Cc3ccccc3)ccc2[nH]1)OCC(F)(F)F (stereo not drawn) [Entry 196, 2,2,2-trifluoroethyl {5-[1-hydroxy-3-oxo-2-(phenylmethyl)-2,3-dihydro-1H-isoindol-1-yl]-1H-benzimidazol-2-yl}carbamate]	< 0.1	< 0.1
